The target of the test is T1, CFTR (primary human bronchial epithelial cells from a ΔF508 homozygous CF donor, CF-HBE cells) (Homo sapiens, UniProt P13569, DEL508-508).
T1 construct: Primary human bronchial epithelial cells from a ΔF508 homozygous CF donor; host or cells: primary human bronchial epithelial cells (CF-HBE) from a ΔF508 homozygous CF donor
Description: TECC24 recording of CFTR-mediated transepithelial chloride transport (TECC24 AUC fold over DMSO @ 3 μM). It is filed as cell-based. Conditions: 3 uM test agent; CF-HBE cells (ΔF508 homozygous) incubated 48 h; ratio of test agent AUC of forskolin-stimulated IEQ to vehicle (DMSO) AUC. The procedure, abridged: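 ΔF508-homozygous CF-HBE cells incubated 48 h at 36.5° C with test agent (3 μM) in IL-13-containing medium, then recorded in current clamp with benzamil (10 μM), forskolin (10 μM) and bumetanide (20 μM). AUC of equivalent Cl− current between forskolin and bumetanide expressed as fold over DMSO vehicle.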

T1 sequence (P13569 with tags, fused parts or gaps DEL508-508): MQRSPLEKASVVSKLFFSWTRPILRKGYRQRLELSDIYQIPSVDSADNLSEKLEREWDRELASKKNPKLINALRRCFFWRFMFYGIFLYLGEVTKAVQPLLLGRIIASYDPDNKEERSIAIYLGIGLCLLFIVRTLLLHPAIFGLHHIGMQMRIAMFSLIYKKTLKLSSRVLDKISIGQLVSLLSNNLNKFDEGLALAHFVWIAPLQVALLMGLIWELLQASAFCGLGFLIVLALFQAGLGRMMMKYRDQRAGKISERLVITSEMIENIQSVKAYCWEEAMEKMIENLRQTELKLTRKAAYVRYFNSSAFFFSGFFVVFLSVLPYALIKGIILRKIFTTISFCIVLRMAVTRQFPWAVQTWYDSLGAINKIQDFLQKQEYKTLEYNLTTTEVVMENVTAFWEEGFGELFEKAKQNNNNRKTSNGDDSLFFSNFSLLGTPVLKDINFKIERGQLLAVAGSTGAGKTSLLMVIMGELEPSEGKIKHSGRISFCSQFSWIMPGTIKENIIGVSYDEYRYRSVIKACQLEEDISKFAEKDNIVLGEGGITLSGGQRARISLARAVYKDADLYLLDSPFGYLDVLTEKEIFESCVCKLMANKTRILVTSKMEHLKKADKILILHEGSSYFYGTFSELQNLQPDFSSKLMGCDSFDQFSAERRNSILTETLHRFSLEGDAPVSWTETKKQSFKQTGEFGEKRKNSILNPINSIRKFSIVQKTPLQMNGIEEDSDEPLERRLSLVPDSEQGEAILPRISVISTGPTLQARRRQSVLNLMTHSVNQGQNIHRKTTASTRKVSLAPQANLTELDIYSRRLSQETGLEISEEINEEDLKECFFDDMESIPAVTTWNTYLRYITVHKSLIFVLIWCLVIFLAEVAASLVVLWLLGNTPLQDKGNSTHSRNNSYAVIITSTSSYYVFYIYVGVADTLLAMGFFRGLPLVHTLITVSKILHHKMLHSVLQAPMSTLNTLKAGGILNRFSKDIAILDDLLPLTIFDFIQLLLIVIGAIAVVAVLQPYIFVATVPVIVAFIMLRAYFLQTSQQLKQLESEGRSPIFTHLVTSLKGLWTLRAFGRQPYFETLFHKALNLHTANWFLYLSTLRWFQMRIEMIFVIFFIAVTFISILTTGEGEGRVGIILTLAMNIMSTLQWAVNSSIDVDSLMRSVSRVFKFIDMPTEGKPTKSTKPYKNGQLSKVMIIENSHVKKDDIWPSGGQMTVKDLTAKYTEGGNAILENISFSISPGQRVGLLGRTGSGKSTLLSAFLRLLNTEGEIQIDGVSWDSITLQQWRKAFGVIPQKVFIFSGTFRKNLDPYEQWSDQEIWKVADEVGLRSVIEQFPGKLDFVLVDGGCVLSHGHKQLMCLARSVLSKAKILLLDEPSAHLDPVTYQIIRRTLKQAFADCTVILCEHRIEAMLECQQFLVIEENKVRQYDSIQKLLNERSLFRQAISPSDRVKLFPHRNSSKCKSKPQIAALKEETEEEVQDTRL

As to `Cc1cccc(C)c1-c1nc(NS(=O)(=O)c2cccc(N)n2)sc1-c1cc(F)cc(OCCC(C)(C)C)c1` [Example 31, 6-Amino-N-(5-(3-(3,3-dimethylbutoxy)-5-fluorophenyl)-4-(2,6-dimethylphenyl)thiazol-2-yl)pyridine-2-sulfonamide], the “TECC AUC vs. DMSO @ 3 uM” value is “A (“A” refers to AUC > 5)”.

For `Cc1cccc(C)c1-c1nc(NS(=O)(=O)c2cccc(NC3CC(C)(O)C3)c2)sc1-c1cccc(OCC(C)(C)C(F)(F)F)c1` (stereo not shown) [Example 13, N-(4-(2,6-Dimethylphenyl)-5-(3-(3,3,3-trifluoro-2,2-dimethylpropoxy)phenyl)thiazol-2-yl)-3-((3-hydroxy-3-methylcyclobutyl)amino)benzenesulfonamide], the “TECC AUC vs. DMSO @ 3 uM” value is reported as “A (“A” refers to AUC > 5)”.

As for `Cc1cccc(C)c1-c1nc(NS(=O)(=O)c2cccc(C(F)F)c2)sc1-c1cccc(OCCC(C)(C)C)c1` [Example 22, 3-(Difluoromethyl)-N-(5-(3-(3,3-dimethylbutoxy)phenyl)-4-(2,6-dimethylphenyl)thiazol-2-yl)benzenesulfonamide], the “TECC AUC vs. DMSO @ 3 uM” value is reported as “A (“A” refers to AUC > 5)”.

For the compound `O=S(=O)(Nc1nc(-c2ccccc2C(F)(F)F)c(-c2cccc([C@@H]3CC[C@@H](OC(F)(F)F)C3)c2)s1)c1ccccc1` (single isomer, unassigned) [Example 44B1], the “TECC AUC vs. DMSO @ 3 uM” value is on record as “B (“B” refers to AUC 2-5)”.

For `CC(C)c1ccccc1-c1nc(NS(=O)(=O)c2cccc(NC(C)C(F)(F)F)c2)sc1-n1ccc(OCC(C)(C)C(F)(F)F)n1` (stereo not shown) [Example 471, N-[4-(2-propan-2-ylphenyl)-5-[3-(3,3,3-trifluoro-2,2-dimethylpropoxy)pyrazol-1-yl]-1,3-thiazol-2-yl]-3-(1,1,1-trifluoropropan-2-ylamino)benzenesulfonamide], the “TECC AUC vs. DMSO @ 3 uM” value is given as “B (“B” refers to AUC 2-5)”.

As to `CC(C)(C)CCOc1cccc(-c2sc(NS(=O)(=O)c3cccc(NC(=O)C4CC4)c3)nc2-c2ccccc2C(F)(F)F)c1` [Example 19, N-(3-(N-(5-(3-(3,3-Dimethylbutoxy)phenyl)-4-(2-(trifluoromethyl)phenyl)thiazol-2-yl)sulfamoyl)phenyl)cyclopropanecarboxamide], the “TECC AUC vs. DMSO @ 3 uM” value is listed as “A (“A” refers to AUC > 5)”.

Take `Cc1cccc(C)c1-c1nc(NS(=O)(=O)c2cccc(N)c2)sc1-c1cc(F)cc(OCCC(C)(C)C)c1` [Example 7, 3-Amino-N-(5-(3-(3,3-dimethylbutoxy)-5-fluorophenyl)-4-(2,6-dimethylphenyl)thiazol-2-yl)benzenesulfonamide]: the “TECC AUC vs. DMSO @ 3 uM” value is listed as “A (“A” refers to AUC > 5)”.

With `Cc1cccc(C)c1-c1nc(NS(=O)(=O)c2cccc(N)c2F)sc1N1CCOC2(CCC(C)(C)C2)C1` (stereo not shown) [Example 38, 3-Amino-N-(5-(2,2-dimethyl-6-oxa-9-azaspiro[4.5]decan-9-yl)-4-(2,6-dimethylphenyl)thiazol-2-yl)-2-fluorobenzenesulfonamide], the “TECC AUC vs. DMSO @ 3 uM” value is reported as “A (“A” refers to AUC > 5)”.

Take `Nc1cccc(S(=O)(=O)Nc2nc(-c3ccccc3C(F)(F)F)c(-c3cccc([C@H]4CC[C@H](OC(F)(F)F)C4)c3)s2)c1F` (single isomer, unassigned) [Example 47A2]: the “TECC AUC vs. DMSO @ 3 uM” value is recorded as “C (“C” refers to AUC < 2)”.

For `CC(C)c1ccccc1-c1nc(NS(=O)(=O)c2cccc(N)c2F)sc1-c1cccc([C@H]2CC[C@H](OC(F)(F)F)C2)c1` [Example 48A2, 3-Amino-2-fluoro-N-(4-(2-isopropylphenyl)-5-(3-((1S,3S)-3-(trifluoromethoxy)cyclopentyl)phenyl)thiazol-2-yl)benzenesulfonamide], the “TECC AUC vs. DMSO @ 3 uM” value is given as “A (“A” refers to AUC > 5)”.

Turning to `CC(C)c1ccccc1-c1nc(NS(=O)(=O)c2cccc(N)c2)sc1-c1cc(F)cc(OCCC(C)(C)C)c1` [Example 11, 3-Amino-N-(5-(3-(3,3-dimethylbutoxy)-5-fluorophenyl)-4-(2-isopropylphenyl)thiazol-2-yl)benzenesulfonamide], the “TECC AUC vs. DMSO @ 3 uM” value is listed as “A (“A” refers to AUC > 5)”.

Turning to `Cc1nn(C)cc1S(=O)(=O)Nc1nc(-c2ccccc2C(C)C)c(-c2cccc([C@@H]3CC[C@@H](OC(F)(F)F)C3)c2)s1` [Example 46B2, N-(4-(2-Isopropylphenyl)-5-(3-((1R,3R)-3-(trifluoromethoxy)cyclopentyl)phenyl)thiazol-2-yl)-1,3-dimethyl-1H-pyrazole-4-sulfonamide], the “TECC AUC vs. DMSO @ 3 uM” value is listed as “C (“C” refers to AUC < 2)”.

With `Cc1cccc(C)c1-c1nc(NS(=O)(=O)c2cn(C)nc2C)sc1N1CCOC2(CCC(OC(F)(F)F)C2)C1` (stereo not shown) [Example 491, N-[4-(2,6-dimethylphenyl)-5-[3-(trifluoromethoxy)-6-oxa-9-azaspiro[4.5]decan-9-yl]-1,3-thiazol-2-yl]-1,3-dimethylpyrazole-4-sulfonamide], the “TECC AUC vs. DMSO @ 3 uM” value is on record as “B (“B” refers to AUC 2-5)”.

Regarding `Cc1cccc(OC(C)C)c1-c1nc(NS(=O)(=O)c2ccnc(N)c2)sc1-c1cc(F)cc(OCCC(C)(C)C)c1` [Example 34, 2-Amino-N-(5-(3-(3,3-dimethylbutoxy)-5-fluorophenyl)-4-(2-isopropoxy-6-methylphenyl)thiazol-2-yl)pyridine-4-sulfonamide], the “TECC AUC vs. DMSO @ 3 uM” value is reported as “A (“A” refers to AUC > 5)”.

As for `CC(C)c1ccccc1-c1nc(NS(=O)(=O)c2cccc(N)c2F)sc1-c1cccc([C@@H]2CC[C@@H](OC(F)(F)F)C2)c1` [Example 48B2, 3-Amino-2-fluoro-N-(4-(2-isopropylphenyl)-5-(3-((1R,3R)-3-(trifluoromethoxy)cyclopentyl)phenyl)thiazol-2-yl)benzenesulfonamide], the “TECC AUC vs. DMSO @ 3 uM” value is “B (“B” refers to AUC 2-5)”.

For the compound `Cc1nn(C)cc1S(=O)(=O)Nc1nc(-c2ccccc2C(F)(F)F)c(-c2cccc([C@H]3CC[C@@H](OC(F)(F)F)C3)c2)s1` (single isomer, unassigned) [Example 45A1], the “TECC AUC vs. DMSO @ 3 uM” value was “B (“B” refers to AUC 2-5)”.

Consider `Cc1cccc(C)c1-c1nc(NS(=O)(=O)c2cccc(N)c2F)sc1-c1cc(F)cc(OCCC(C)(C)C)c1` [Example 25, 3-Amino-N-(5-(3-(3,3-dimethylbutoxy)-5-fluorophenyl)-4-(2,6-dimethylphenyl)thiazol-2-yl)-2-fluorobenzenesulfonamide], for which the “TECC AUC vs. DMSO @ 3 uM” value was “A (“A” refers to AUC > 5)”.

In the case of `CC(C)c1ccccc1-c1nc(NS(=O)(=O)c2cccc(N[C@H](C)C(F)(F)F)c2)sc1-c1cccc(OCC(C)(C)C)c1` [Example 429, N-[5-[3-(2,2-dimethylpropoxy)phenyl]-4-(2-propan-2-ylphenyl)-1,3-thiazol-2-yl]-3-[[(2R)-1,1,1-trifluoropropan-2-yl]amino]benzenesulfonamide], the “TECC AUC vs. DMSO @ 3 uM” value is given as “A (“A” refers to AUC > 5)”.

For the compound `CC(C)c1ccccc1-c1nc(NS(=O)(=O)c2cccc(N)c2F)sc1N1CCOC2(CCC(C)(C)C2)C1` (stereo not shown) [Example 39, 3-Amino-N-(5-(2,2-dimethyl-6-oxa-9-azaspiro[4.5]decan-9-yl)-4-(2-isopropylphenyl)thiazol-2-yl)-2-fluorobenzenesulfonamide], the “TECC AUC vs. DMSO @ 3 uM” value is “B (“B” refers to AUC 2-5)”.

Source of the values: patent publication US20240002374A1, “5-MEMBERED HETEROARYLAMINOSULFONAMIDES FOR TREATING CONDITIONS MEDIATED BY DEFICIENT CFTR ACTIVITY” (Genzyme Corporation, priority 2019, published 2024).
